Structures are written as SMILES.

Common to all, as to experiment: CEREP protein kinase assay
Type in all cases: biochemical

In assay [1] the target is T1, EGFR (Homo sapiens, UniProt P00533).
T1 construct: purchased CEREP Panlabs (Eurofins)

Assay [2] addresses T2, LIMK1 (Homo sapiens, UniProt P53667).
T2 construct: purchased CEREP Panlabs (Eurofins)

Assay [3] deals with T3, MUSK (Homo sapiens, UniProt O15146).
T3 construct: purchased CEREP Panlabs (Eurofins)
T3 sequence (O15146 24-869): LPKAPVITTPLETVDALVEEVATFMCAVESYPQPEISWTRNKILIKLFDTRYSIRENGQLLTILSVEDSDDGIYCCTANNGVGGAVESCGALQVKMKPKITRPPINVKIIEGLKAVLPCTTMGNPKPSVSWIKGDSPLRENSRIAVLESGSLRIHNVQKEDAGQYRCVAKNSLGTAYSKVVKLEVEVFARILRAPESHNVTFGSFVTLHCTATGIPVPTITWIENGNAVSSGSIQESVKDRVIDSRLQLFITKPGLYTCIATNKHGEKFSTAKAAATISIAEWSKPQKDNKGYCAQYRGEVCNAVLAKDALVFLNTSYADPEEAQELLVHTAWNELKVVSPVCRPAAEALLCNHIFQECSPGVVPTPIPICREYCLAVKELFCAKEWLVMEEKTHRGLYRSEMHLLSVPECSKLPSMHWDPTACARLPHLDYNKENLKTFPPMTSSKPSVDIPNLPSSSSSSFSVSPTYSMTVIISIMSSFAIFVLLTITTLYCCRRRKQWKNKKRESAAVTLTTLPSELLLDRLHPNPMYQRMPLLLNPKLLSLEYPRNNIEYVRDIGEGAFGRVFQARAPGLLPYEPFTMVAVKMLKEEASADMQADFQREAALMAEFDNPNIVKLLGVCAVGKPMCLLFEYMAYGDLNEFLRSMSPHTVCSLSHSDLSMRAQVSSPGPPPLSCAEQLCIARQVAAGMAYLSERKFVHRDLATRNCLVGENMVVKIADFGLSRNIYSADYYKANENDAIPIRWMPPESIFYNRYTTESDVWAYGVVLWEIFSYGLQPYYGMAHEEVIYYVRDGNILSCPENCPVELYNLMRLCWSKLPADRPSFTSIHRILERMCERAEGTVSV

Assay [4] deals with T4, PKAa (Homo sapiens, UniProt P17612).
T4 construct: purchased CEREP Panlabs (Eurofins)

In assay [5] the target is T5, FLT1 (Homo sapiens, UniProt P17948).
T5 construct: purchased CEREP Panlabs (Eurofins)
T5 sequence (P17948 27-1338): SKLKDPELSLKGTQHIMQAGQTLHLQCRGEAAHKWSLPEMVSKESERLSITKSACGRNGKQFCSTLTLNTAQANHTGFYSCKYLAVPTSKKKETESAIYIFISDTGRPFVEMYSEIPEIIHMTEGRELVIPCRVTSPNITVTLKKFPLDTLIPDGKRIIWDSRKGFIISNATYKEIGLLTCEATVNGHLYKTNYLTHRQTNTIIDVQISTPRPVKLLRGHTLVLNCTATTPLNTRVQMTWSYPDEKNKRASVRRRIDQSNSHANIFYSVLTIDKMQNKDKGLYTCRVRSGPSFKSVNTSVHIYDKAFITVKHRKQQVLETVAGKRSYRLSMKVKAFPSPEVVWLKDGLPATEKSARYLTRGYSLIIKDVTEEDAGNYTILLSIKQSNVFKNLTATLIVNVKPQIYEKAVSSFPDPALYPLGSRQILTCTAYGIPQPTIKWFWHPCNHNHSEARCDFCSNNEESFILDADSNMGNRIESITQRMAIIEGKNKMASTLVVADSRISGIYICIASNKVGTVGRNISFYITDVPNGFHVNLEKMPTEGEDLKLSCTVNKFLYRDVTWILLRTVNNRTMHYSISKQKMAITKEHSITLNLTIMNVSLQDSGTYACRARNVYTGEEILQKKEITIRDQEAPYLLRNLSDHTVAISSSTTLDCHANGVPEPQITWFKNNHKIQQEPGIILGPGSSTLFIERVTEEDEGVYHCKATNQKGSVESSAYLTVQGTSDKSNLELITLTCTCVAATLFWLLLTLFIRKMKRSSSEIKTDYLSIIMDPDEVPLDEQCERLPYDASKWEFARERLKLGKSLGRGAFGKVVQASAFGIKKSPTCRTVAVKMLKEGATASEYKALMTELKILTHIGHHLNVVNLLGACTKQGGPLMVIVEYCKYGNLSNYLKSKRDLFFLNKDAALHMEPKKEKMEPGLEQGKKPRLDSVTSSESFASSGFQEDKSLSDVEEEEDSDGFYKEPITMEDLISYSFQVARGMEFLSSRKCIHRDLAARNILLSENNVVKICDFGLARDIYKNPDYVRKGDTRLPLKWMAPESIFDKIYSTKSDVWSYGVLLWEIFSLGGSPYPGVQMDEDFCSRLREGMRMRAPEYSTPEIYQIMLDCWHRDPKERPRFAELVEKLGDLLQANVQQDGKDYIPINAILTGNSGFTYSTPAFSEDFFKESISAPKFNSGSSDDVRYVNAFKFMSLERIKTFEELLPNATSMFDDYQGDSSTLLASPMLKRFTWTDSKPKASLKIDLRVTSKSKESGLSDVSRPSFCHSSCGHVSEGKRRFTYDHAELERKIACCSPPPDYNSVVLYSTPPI

Assay [6] has as its target T6, TNK1 (Homo sapiens, UniProt Q13470).
T6 construct: purchased CEREP Panlabs (Eurofins)
T6 sequence (Q13470 1-666): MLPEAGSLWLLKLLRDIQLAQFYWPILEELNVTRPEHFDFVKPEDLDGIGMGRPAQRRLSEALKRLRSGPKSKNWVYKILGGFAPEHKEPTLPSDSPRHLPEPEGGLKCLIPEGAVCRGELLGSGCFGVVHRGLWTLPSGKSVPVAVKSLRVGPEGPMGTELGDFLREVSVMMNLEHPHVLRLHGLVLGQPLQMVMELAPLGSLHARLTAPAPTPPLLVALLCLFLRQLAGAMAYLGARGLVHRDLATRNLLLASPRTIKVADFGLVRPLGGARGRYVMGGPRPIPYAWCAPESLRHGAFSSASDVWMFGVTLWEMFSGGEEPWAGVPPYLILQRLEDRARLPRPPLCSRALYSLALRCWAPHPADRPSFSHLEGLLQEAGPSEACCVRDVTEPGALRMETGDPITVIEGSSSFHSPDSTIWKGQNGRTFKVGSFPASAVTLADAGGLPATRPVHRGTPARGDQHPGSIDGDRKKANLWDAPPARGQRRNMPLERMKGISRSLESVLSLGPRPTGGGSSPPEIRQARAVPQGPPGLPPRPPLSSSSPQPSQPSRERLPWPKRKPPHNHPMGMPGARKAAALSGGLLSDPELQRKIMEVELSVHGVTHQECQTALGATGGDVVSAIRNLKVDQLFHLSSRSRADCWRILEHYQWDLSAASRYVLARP

For assay [7], the target named is T7, FGFR1 (Homo sapiens, UniProt P11362).
T7 construct: purchased CEREP Panlabs (Eurofins)
T7 sequence (P11362 22-822): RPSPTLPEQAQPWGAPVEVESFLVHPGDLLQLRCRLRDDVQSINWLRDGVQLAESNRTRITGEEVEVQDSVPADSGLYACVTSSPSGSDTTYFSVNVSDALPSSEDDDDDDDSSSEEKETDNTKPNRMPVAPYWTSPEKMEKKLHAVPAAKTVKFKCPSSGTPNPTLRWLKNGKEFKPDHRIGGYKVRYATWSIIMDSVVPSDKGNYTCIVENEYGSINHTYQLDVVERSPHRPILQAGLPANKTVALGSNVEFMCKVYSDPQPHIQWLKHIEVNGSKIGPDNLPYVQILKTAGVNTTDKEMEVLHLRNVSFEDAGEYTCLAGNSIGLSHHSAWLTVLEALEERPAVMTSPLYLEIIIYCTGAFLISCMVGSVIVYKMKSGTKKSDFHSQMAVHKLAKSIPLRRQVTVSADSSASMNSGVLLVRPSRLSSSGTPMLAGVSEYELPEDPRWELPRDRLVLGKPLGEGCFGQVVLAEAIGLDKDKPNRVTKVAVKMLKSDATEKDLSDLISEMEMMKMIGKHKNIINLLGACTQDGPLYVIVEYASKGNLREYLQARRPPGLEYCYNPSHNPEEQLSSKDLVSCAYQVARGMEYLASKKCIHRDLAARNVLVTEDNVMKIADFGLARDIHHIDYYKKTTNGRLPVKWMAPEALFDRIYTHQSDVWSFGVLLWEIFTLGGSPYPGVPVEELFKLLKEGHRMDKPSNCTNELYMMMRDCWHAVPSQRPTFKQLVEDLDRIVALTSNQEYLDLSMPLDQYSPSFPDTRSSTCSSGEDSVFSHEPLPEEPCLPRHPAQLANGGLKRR

Assay [8] deals with T8, TNK2 (Homo sapiens, UniProt Q07912).
T8 construct: purchased CEREP Panlabs (Eurofins)
T8 sequence (Q07912 whole entry): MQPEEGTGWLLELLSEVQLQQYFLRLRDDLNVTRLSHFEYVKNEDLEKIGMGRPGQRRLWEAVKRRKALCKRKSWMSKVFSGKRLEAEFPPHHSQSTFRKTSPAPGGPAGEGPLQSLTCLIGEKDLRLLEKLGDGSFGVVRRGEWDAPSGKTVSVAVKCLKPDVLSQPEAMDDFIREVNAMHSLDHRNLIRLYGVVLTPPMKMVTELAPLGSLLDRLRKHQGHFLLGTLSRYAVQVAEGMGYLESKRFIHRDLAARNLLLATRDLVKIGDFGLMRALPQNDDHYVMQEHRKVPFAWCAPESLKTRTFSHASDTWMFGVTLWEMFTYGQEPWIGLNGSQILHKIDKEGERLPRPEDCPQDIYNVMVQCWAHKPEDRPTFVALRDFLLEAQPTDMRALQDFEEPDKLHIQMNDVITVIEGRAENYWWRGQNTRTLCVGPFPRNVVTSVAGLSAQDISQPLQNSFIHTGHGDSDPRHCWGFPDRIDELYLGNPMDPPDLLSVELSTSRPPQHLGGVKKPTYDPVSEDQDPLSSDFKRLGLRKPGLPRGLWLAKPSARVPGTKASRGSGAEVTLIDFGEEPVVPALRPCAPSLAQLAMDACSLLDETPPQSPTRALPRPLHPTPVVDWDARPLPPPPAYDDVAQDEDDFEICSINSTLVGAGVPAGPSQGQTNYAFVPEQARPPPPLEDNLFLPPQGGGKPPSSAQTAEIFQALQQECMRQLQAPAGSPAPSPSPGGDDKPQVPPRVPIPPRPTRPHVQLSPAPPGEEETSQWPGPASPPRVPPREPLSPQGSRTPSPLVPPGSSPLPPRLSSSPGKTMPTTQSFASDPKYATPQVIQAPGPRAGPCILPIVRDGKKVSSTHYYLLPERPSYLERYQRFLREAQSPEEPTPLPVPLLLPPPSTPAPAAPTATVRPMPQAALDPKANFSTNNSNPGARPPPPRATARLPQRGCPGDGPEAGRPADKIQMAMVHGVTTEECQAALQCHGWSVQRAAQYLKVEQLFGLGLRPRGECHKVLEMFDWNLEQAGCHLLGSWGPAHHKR

T1 sequence (P00533 25-1210): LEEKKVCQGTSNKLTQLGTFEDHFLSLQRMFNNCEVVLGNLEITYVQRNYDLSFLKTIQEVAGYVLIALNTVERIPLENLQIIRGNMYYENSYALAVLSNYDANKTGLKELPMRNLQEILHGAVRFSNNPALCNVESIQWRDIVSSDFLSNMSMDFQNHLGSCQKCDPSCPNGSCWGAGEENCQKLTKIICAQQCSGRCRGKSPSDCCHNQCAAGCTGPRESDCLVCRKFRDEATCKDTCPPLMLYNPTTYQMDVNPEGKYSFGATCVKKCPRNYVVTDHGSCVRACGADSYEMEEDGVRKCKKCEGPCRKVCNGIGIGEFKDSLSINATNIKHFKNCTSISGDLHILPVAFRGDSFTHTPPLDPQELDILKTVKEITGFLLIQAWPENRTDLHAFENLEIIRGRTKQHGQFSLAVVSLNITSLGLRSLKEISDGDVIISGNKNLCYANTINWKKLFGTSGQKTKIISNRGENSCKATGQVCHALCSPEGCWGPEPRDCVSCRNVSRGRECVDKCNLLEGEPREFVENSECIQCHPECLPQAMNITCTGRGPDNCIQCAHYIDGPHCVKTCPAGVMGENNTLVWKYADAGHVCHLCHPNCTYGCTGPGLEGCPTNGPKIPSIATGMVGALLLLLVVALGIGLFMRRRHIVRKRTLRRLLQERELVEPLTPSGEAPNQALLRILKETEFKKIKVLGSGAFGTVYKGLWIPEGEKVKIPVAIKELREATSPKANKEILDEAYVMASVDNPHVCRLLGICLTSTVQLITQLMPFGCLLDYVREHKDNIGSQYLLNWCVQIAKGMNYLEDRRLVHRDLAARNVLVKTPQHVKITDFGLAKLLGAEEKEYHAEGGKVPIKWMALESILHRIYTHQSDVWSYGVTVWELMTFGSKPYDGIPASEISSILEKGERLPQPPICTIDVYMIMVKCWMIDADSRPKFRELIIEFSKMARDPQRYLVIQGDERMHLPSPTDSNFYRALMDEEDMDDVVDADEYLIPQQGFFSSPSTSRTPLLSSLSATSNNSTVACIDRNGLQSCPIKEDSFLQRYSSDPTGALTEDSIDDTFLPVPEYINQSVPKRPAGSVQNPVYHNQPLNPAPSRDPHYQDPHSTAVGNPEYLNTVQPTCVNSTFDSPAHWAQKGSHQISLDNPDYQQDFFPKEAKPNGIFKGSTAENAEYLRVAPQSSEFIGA
T2 sequence (P53667 whole entry): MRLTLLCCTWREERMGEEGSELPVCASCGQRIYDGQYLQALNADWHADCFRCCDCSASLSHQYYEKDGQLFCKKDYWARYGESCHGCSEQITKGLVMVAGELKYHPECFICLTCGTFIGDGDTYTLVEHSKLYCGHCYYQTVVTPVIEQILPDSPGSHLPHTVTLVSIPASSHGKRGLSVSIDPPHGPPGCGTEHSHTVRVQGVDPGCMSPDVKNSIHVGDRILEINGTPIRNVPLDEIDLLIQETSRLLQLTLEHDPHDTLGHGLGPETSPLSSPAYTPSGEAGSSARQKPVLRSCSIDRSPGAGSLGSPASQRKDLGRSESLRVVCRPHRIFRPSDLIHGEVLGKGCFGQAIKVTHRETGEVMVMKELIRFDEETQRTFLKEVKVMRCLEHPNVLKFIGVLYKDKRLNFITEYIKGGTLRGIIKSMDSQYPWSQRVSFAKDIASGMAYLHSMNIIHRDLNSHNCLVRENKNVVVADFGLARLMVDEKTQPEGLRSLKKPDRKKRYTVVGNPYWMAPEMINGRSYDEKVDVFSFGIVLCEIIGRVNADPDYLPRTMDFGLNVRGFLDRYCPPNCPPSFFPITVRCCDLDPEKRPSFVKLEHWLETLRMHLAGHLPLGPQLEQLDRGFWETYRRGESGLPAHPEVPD

Turning to `O=c1[nH]ccc2cc(F)c(NS(=O)(=O)c3ccc(N4CC[C@@H](O)C4)s3)cc12` [LSN3213128, N-(6-Fluoro-1-oxo-1,2-dihydroisoquinolin-7-yl)-5-[(3R)-3-hydroxypyrrolidin-1-yl]thiophene-2-sulfonamide], the inhibition (in general, the relative decrease from the control value, in per cent) at 0.2 µM in assay [1] (@ 0.2 uM) is -11.7%; in assay [2] (@ 0.2 uM) it was -7.18%; in assay [3] (@ 0.2 uM) it was -4.24%; in assay [4] (@ 0.2 uM), -7.44%; in assay [5] (@ 0.2 uM), -9.26%; in assay [6] (@ 0.2 uM), -11.5%. In addition, the results for the inhibition at 0.2 µM in assay [7] (@ 0.2 uM) and in assay [8] (@ 0.2 uM) were -9.3% and -2.49%, respectively. Also, the inhibition at 2 µM in assay [1] (@ 2 uM) was 2.87%; in assay [2] (@ 2 uM) it was 5.89%; in assay [3] (@ 2 uM), 5.22%; in assay [4] (@ 2 uM), -0.808%; in assay [5] (@ 2 uM), 4.29%; in assay [6] (@ 2 uM), -5.26%. In addition, the inhibition at 2 µM in assay [7] (@ 2 uM) was found to be 0.634%; in assay [8] (@ 2 uM) it was 16.4%. The inhibition at 20 µM in assay [1] (@ 20 uM) was -0.46%; in assay [2] (@ 20 uM) it was 0.523%; in assay [3] (@ 20 uM) it was -2.74%; in assay [4] (@ 20 uM) it was 3.8%; in assay [5] (@ 20 uM), 33.8%; in assay [6] (@ 20 uM), -3.7%. Besides, the inhibition at 20 µM in assay [7] (@ 20 uM) worked out at 10.3%; in assay [8] (@ 20 uM), 52.5%.
